Source: ChEMBL document CHEMBL1147613, “A series of spirocyclic analogues as potent inhibitors of bacterial phenylalanyl-tRNA synthetases” (Bioorg Med Chem Lett, 2004)

Molecular target: T1, Phenylalanine--tRNA ligase, mitochondrial (Homo sapiens, UniProt O95363)
T1 sequence (O95363 whole entry): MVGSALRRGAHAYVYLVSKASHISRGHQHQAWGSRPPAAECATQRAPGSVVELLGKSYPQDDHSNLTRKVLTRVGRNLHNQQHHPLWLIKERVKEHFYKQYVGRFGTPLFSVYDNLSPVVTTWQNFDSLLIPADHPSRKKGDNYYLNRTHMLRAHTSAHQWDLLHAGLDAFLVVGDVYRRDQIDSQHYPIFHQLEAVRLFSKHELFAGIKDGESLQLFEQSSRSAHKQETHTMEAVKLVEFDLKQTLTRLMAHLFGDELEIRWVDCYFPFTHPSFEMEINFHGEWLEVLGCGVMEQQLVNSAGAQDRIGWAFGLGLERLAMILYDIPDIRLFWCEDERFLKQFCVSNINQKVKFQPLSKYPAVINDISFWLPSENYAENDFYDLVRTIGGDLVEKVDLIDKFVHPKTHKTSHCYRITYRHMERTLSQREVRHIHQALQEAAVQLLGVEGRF
Experiment: Inhibitory activity against human phenylalanyl-tRNA synthetase was determined

SMILES | IC50 [µM]
Cc1ccc(N2C(=O)[C@H]3[C@@H](C2=O)C2(N[C@H]3c3ccccc3)C(=O)c3ccccc3C2=O)cc1Cl | > 100
COc1ccccc1N1C(=O)[C@@H]2C(c3ccccc3C)OC3(C(=O)c4ccccc4C3=O)[C@@H]2C1=O (some centres undefined) | > 100
Cc1ccc(N2C(=O)[C@H]3C(c4ccccc4)OC4(C(=O)c5ccccc5C4=O)[C@H]3C2=O)cc1Cl (some centres undefined) | > 100
O=C1C2C(c3ccccc3)OC3(C(=O)c4ccccc4C3=O)C2C(=O)N1c1ccc2c(c1)OCO2 (centres undefined) | > 100
O=C1[C@H]2[C@H](c3ccccc3)NC3(Cc4ccccc4C3)[C@H]2C(=O)N1c1ccc(Cl)c(Cl)c1 | > 100
O=C1[C@@H]2C(c3ccccc3)OC3(C(=O)c4ccccc4C3=O)[C@@H]2C(=O)N1c1ccc([N+](=O)[O-])cc1 (some centres undefined) | > 100
Cc1ccc(N2C(=O)[C@@H]3C(c4ccccc4)OC4(C(=O)c5ccccc5C4=O)[C@@H]3C2=O)cc1Cl (some centres undefined) | > 100
O=C1[C@@H]2C(c3ccc(Cl)cc3)OC3(C(=O)c4ccccc4C3=O)[C@@H]2C(=O)N1c1ccc(Cl)c(C(F)(F)F)c1 (some centres undefined) | > 100
COc1ccc(N2C(=O)[C@@H]3C(c4ccccc4)OC4(C(=O)c5ccccc5C4=O)[C@@H]3C2=O)cc1 (some centres undefined) | > 100
COc1ccccc1N1C(=O)C2C(c3ccccc3)OC3(C(=O)c4ccccc4C3=O)C2C1=O (centres undefined) | > 100
O=C1[C@H]2[C@@H](C(=O)N1c1ccc(Cl)c(Cl)c1)C1(Cc3ccccc3C1)N[C@H]2c1ccccc1 | > 100
O=C(c1ccccc1)C1N[C@@H](c2ccccc2)[C@@H]2C(=O)N(c3ccc(Cl)c(Cl)c3)C(=O)[C@H]12 (some centres undefined) | > 100

More lines, now with the values ahead:

IC50 [µM] | SMILES
> 100 | O=C1[C@H]2[C@@H](C(=O)N1c1ccc(Cl)c(Cl)c1)C1(N[C@H]2c2ccccc2)C(=O)c2ccccc2C1=O
> 100 | Cc1ccc(N2C(=O)[C@H]3[C@H](c4ccccc4)NC4(C(=O)c5ccccc5C4=O)[C@H]3C2=O)cc1Cl
> 100 | COC(=O)C1N[C@@H](c2ccccc2)[C@H]2C(=O)N(c3ccc(Cl)c(Cl)c3)C(=O)[C@@H]12 (some centres undefined)
> 100 | O=C1[C@H]2[C@H](c3ccccc3)NC3(C(=O)c4ccccc4C3=O)[C@H]2C(=O)N1c1ccc(Cl)c(Cl)c1
> 100 | O=C(c1ccccc1)C1N[C@@H](c2ccccc2)[C@H]2C(=O)N(c3ccc(Cl)c(Cl)c3)C(=O)[C@@H]12 (some centres undefined)
> 100 | O=C1[C@@H]2C(c3ccccc3)OC3(C(=O)c4ccccc4C3=O)[C@@H]2C(=O)N1c1ccc(Cl)c(C(F)(F)F)c1 (some centres undefined)
> 100 | Cc1ccc(C2OC3(C(=O)c4ccccc4C3=O)[C@@H]3C(=O)N(c4ccc5c(c4)OCO5)C(=O)[C@H]23)cc1 (some centres undefined)
